Source: patent publication US10729678B2, “Preparation of and formulation comprising a MEK inhibitor” (Array BioPharma Inc., priority 2012, dated 2020)

What was measured:
[1] = Solubility of Compound A in solvents and solvent mixtures; type: physicochemical
Method: Due to this low solubility, it is difficult to perform crystallization by standard cooling methods and to control crystal growth. […] This improvement in solubility contributes to an improvement in the purity profile of the final drug substance.
As discussed above, the crystallization process makes use of anti-solvent cooling system. In step d), water is added to the suspension or the cooled suspension mixture to provide a treated mixture. Water, which in general acts as an anti-solvent (solubility <0.01% over a wide temperature range), also unexpectedly acts as a solvent for Compound A when part of the water/methanol/tetrahydrofuran solvent system.

[2] = test system: unresectable, locally advanced or metastatic biliary cancer; settings: 28 patients with ≤1 prior systemic therapy; oral 60 mg twice daily; after at least 6 weeks of treatment; cited from earlier work
[3] = test system: BRAFV600 or NRAS-mutant melanoma; settings: patients with either BRAFV600 or NRAS-mutant melanoma; cited from earlier work

Structure (SMILES): Cn1cnc2c(F)c(Nc3ccc(Br)cc3F)c(C(=O)NOCCO)cc21 [Compound A, 6-(4-Bromo-2-fluorophenylamino)-7-fluoro-3-methyl-3H-benzoimidazole-5-carboxylic acid (2-hydroxyethyoxy)-amide]
- solvent mixture at which maximum solubility is reached ([1]; 65° C., solubility decreases with further addition of water): water (24%), methanol (38%), and tetrahydrofuran (38%)
- solubility in most standard solvents ([1]; room temperature): less than 1%
- increase of solubility on addition of water to solvent mixture ([1]; tetrahydrofuran and methanol with water, compared to methanol and tetrahydrofuran without water): approximately 50%
- solubility in water (anti-solvent) ([1]; water, broad/wide temperature range): < 0.01%
- complete regression (number of patients) [2]: 1
- partial regression (number of patients) [2]: 1
- stable disease diagnoses (number of patients) [2]: 11
- effectiveness in treatment of patients [3]: effective
